Measured values taken from PubChem BioAssay (NCI).
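In this assay, cells in 96-well plates receive the compound at five concentrations for 48 hours. Endpoints are linearly interpolated between the surrounding concentrations. TGI marks complete inhibition of growth.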

Legend:
Experiment in all cases: NCI tumour cell line growth inhibition, 48 h
[1] = system: OVCAR-3 ovarian
[2] = system: CCRF-CEM leukemia
[3] = system: NCI-H522 lung
[4] = system: NCI-H226 lung
[5] = system: SK-MEL-2 melanoma
[6] = system: SF-295 CNS
[7] = system: KM12 colon
[8] = system: RPMI-8226 leukemia
[9] = system: OVCAR-4 ovarian
[10] = system: 786-0 renal
[11] = system: HL-60(TB) leukemia
[12] = system: HCT-15 colon
[13] = system: SN12C renal
[14] = system: NCI-H23 lung
[15] = system: HCC-2998 colon
[16] = system: DMS 114 small cell lung
[17] = system: CAKI-1 renal
[18] = system: KM20L2 colon
[19] = system: OVCAR-8 ovarian
[20] = system: SK-MEL-5 melanoma
[21] = system: HOP-62 NSCLC
[22] = system: SW-620 colon
[23] = system: OVCAR-5 ovarian
[24] = system: A549 NSCLC
[25] = system: A498 renal
[26] = system: HCT-116 colon
[27] = system: SK-OV-3 ovarian
[28] = system: K-562 leukemia
[29] = system: DLD-1 colon
[30] = system: TK-10 renal
[31] = system: M14 melanoma
[32] = system: SF-539 CNS
[33] = system: LXFL 529 NSCLC
[34] = system: ACHN renal
[35] = system: UO-31 renal
[36] = system: SK-MEL-28 melanoma
[37] = system: NCI-H460 lung
[38] = system: LOX IMVI melanoma
[39] = system: MALME-3M melanoma
[40] = system: UACC-62 melanoma
[41] = system: SF-268 CNS
[42] = system: DMS 273 small cell lung
[43] = system: EKVX NSCLC
[44] = system: IGROV1 ovarian
[45] = system: MOLT-4 leukemia
[46] = system: HT29 colon
[47] = system: UACC-257 melanoma
[48] = system: SNB-75 CNS
[49] = system: SNB-19 CNS
[50] = system: COLO 205 colon
[51] = system: BT-549 breast
[52] = system: NCI/ADR-RES ovarian
[53] = system: HS 578T breast
[54] = system: MDA-MB-231 breast
[55] = system: U251 CNS
[56] = system: PC-3 prostate
[57] = system: SR leukemia
[58] = system: T-47D breast
[59] = system: MDA-MB-435
[60] = system: DU-145 prostate
[61] = system: MDA-N
[62] = system: MCF7 breast
[63] = system: HOP-92 NSCLC
[64] = system: RXF 393 renal

CC(C)N(C(=O)C12C3C4C1C1C2C3C41C(=O)O)C(C)C (configuration not stated)
TGI [1]: > 100 µM
TGI [2]: > 100 µM
TGI [3]: > 100 µM
TGI [4]: > 100 µM
TGI [5]: > 100 µM
TGI [6]: > 100 µM
TGI [7]: > 100 µM
TGI [8]: > 100 µM
TGI [9]: > 100 µM
TGI [10]: > 100 µM
TGI [11]: > 100 µM
TGI [12]: > 100 µM
TGI [13]: > 100 µM
TGI [14]: > 100 µM
TGI [15]: > 100 µM
TGI [16]: > 100 µM
TGI [17]: > 100 µM
TGI [18]: > 100 µM
TGI [19]: > 100 µM
TGI [20]: > 100 µM
TGI [21]: > 100 µM
TGI [22]: > 100 µM
TGI [23]: > 100 µM
TGI [24]: > 100 µM
TGI [25]: > 100 µM
TGI [26]: > 100 µM
TGI [27]: > 100 µM
TGI [28]: > 100 µM
TGI [29]: > 100 µM
TGI [30]: > 100 µM
TGI [31]: > 100 µM
TGI [32]: > 100 µM
TGI [33]: > 100 µM
TGI [34]: > 100 µM
TGI [35]: > 100 µM
TGI [36]: > 100 µM
TGI [37]: > 100 µM
TGI [38]: > 100 µM
TGI [39]: > 100 µM
TGI [40]: > 100 µM
TGI [41]: > 100 µM
TGI [42]: > 100 µM
TGI [43]: > 100 µM
TGI [44]: > 100 µM
TGI [45]: > 100 µM
TGI [46]: > 100 µM
TGI [47]: > 100 µM
TGI [48]: > 100 µM
TGI [49]: > 100 µM
TGI [50]: > 100 µM

COc1ccc(N2C(=O)C3c4[nH]c5ccccc5c4C4CCC(c5ccccc5)CC4C3C2=O)cc1 (configuration not stated)
TGI [1]: > 100 µM
TGI [2]: 53 µM
TGI [51]: > 58.3 µM
TGI [52]: > 59.3 µM
TGI [3]: > 44 µM
TGI [53]: 21.5 µM
TGI [54]: 41.5 µM
TGI [55]: 21.1 µM
TGI [4]: > 96.7 µM
TGI [5]: 53.2 µM
TGI [6]: > 51.1 µM
TGI [56]: > 78.5 µM
TGI [7]: > 100 µM
TGI [57]: 7.15 µM
TGI [8]: 78.6 µM
TGI [9]: > 49.5 µM
TGI [10]: > 34.9 µM
TGI [11]: > 34.8 µM
TGI [58]: > 100 µM
TGI [12]: > 100 µM
TGI [13]: > 68.4 µM
TGI [14]: > 51.7 µM
TGI [15]: > 44.9 µM
TGI [17]: 36.1 µM
TGI [19]: 37.2 µM
TGI [20]: > 87.8 µM
TGI [21]: 27.7 µM
TGI [22]: > 100 µM
TGI [23]: > 100 µM
TGI [24]: > 78.1 µM
TGI [25]: 50.6 µM
TGI [26]: > 100 µM
TGI [27]: 54.8 µM
TGI [28]: > 41.3 µM
TGI [30]: 35.5 µM
TGI [31]: > 94.4 µM
TGI [32]: 7.4 µM
TGI [59]: > 100 µM
TGI [34]: 47.9 µM
TGI [35]: > 88.2 µM
TGI [36]: > 96.2 µM
TGI [60]: > 100 µM
TGI [61]: > 81.5 µM
TGI [37]: > 43.1 µM
TGI [38]: > 54.1 µM
TGI [39]: 18.3 µM
TGI [40]: 50.3 µM
TGI [41]: 43.8 µM
TGI [62]: > 100 µM
TGI [63]: 61.8 µM
TGI [43]: 55.6 µM
TGI [44]: 68.8 µM
TGI [45]: > 100 µM
TGI [64]: 25.6 µM
TGI [46]: > 100 µM
TGI [47]: 97.5 µM
TGI [48]: 19.1 µM
TGI [49]: 43.2 µM
TGI [50]: > 78.2 µM

COc1ccc(C2/C(=C(\O)c3ccccc3)C(=O)C(O)(CC(=O)c3ccccc3)N2c2ccc(OC)cc2)cc1 (configuration not stated)
TGI [1]: 26.2 µM
TGI [2]: 14.5 µM
TGI [51]: > 56.8 µM
TGI [52]: 54.7 µM
TGI [3]: 20.5 µM
TGI [53]: > 100 µM
TGI [54]: 50.9 µM
TGI [55]: > 64.3 µM
TGI [4]: 66.3 µM
TGI [5]: 41.4 µM
TGI [6]: > 100 µM
TGI [56]: > 81.6 µM
TGI [7]: 36.9 µM
TGI [57]: 14.3 µM
TGI [8]: 14.8 µM
TGI [9]: > 100 µM
TGI [10]: 46.7 µM
TGI [11]: 28.7 µM
TGI [58]: 98 µM
TGI [12]: 37.2 µM
TGI [13]: 85.5 µM
TGI [14]: > 100 µM
TGI [15]: > 47.7 µM
TGI [17]: > 75.8 µM
TGI [19]: > 100 µM
TGI [20]: 29.2 µM
TGI [21]: > 100 µM
TGI [22]: > 56.6 µM
TGI [23]: > 100 µM
TGI [24]: > 100 µM
TGI [25]: > 100 µM
TGI [26]: 39.8 µM
TGI [27]: 99.3 µM
TGI [28]: 58.8 µM
TGI [30]: > 100 µM
TGI [31]: 99.6 µM
TGI [32]: 59.3 µM
TGI [59]: 47.7 µM
TGI [34]: 68.8 µM
TGI [35]: 32.6 µM
TGI [36]: > 86.4 µM
TGI [60]: > 100 µM
TGI [61]: 82.5 µM
TGI [37]: > 84.8 µM
TGI [38]: 39.2 µM
TGI [39]: 75.7 µM
TGI [40]: > 100 µM
TGI [41]: > 100 µM
TGI [62]: > 88.5 µM
TGI [63]: 32.5 µM
TGI [43]: > 100 µM
TGI [44]: > 77.7 µM
TGI [45]: 54 µM
TGI [64]: > 85.1 µM
TGI [46]: > 100 µM
TGI [47]: 31.9 µM
TGI [48]: > 100 µM
TGI [49]: > 100 µM
TGI [50]: 38.8 µM

Cc1cccc2c1CC(C1OC(=O)c3ccccc31)C2=O (configuration not stated)
TGI [1]: > 100 µM
TGI [2]: > 100 µM
TGI [51]: > 100 µM
TGI [52]: > 100 µM
TGI [3]: > 100 µM
TGI [53]: > 100 µM
TGI [54]: > 100 µM
TGI [55]: > 100 µM
TGI [4]: > 100 µM
TGI [5]: > 100 µM
TGI [6]: > 100 µM
TGI [56]: > 100 µM
TGI [7]: > 100 µM
TGI [57]: > 100 µM
TGI [8]: > 100 µM
TGI [9]: > 100 µM
TGI [10]: > 100 µM
TGI [11]: > 100 µM
TGI [58]: > 100 µM
TGI [12]: > 100 µM
TGI [13]: > 100 µM
TGI [14]: > 100 µM
TGI [15]: > 100 µM
TGI [17]: > 100 µM
TGI [19]: > 100 µM
TGI [20]: > 100 µM
TGI [21]: > 100 µM
TGI [22]: > 100 µM
TGI [23]: > 100 µM
TGI [24]: > 100 µM
TGI [25]: > 100 µM
TGI [26]: > 100 µM
TGI [27]: > 100 µM
TGI [28]: > 100 µM
TGI [30]: > 100 µM
TGI [31]: > 100 µM
TGI [32]: > 100 µM
TGI [59]: > 100 µM
TGI [34]: > 100 µM
TGI [35]: > 100 µM
TGI [36]: > 100 µM
TGI [60]: > 100 µM
TGI [61]: > 100 µM
TGI [37]: > 100 µM
TGI [38]: > 100 µM
TGI [39]: > 100 µM
TGI [40]: > 100 µM
TGI [41]: > 100 µM
TGI [62]: > 100 µM
TGI [63]: > 100 µM
TGI [43]: > 100 µM
TGI [44]: > 100 µM
TGI [45]: > 100 µM
TGI [64]: > 100 µM
TGI [46]: > 100 µM
TGI [47]: > 100 µM
TGI [48]: > 100 µM
TGI [49]: > 100 µM
TGI [50]: > 100 µM
